Literature values, collected in article PMC6270305 (Molecules, 2013).
Where two headings read alike, the source gives them in different places.

[1] = human serum, peptide described in the preliminary communication

| t1/2 (human serum half-life) (human, serum) | Compound | t1/2 (human serum half-life) [1] |
| --- | --- | --- |
|  | [L-Msa11,D-Trp8]-SRIF [Peptide 6] | 41 h |
|  | [L-Msa7]-SRIF [Peptide 2] | 5.2 h |
|  | [L-Msa6,D-Trp8]-SRIF [Peptide 4] | 26 h |
| 25 h | Cc1cc(C)c(C[C@@H]2NC(=O)[C@H](Cc3ccccc3)NC(=O)[C@H](CC(N)=O)NC(=O)[C@H](CCCCN)NC(=O)[C@@H](NC(=O)CNC(=O)[C@H](C)N)CSSC[C@@H](C(=O)O)NC(=O)[C@H](CO)NC(=O)[C@H]([C@@H](C)O)NC(=O)[C@H](Cc3ccccc3)NC(=O)[C@H]([C@@H](C)O)NC(=O)[C@H](CCCCN)NC(=O)[C@@H](Cc3c[nH]c4ccccc34)NC2=O)c(C)c1 [Peptide 5, [L-Msa7,D-Trp8]-SRIF] |  |
